# Laboratory results published in patent US11834698B2, “Process for determining enzyme activity in a cell by activity-based reporter gene technology (ABRGT)” (INDIAN INSTITUTE OF SCIENCE EDUCATION AND RESEARCH, priority 2018, dated 2023).
# Peptide text beside a SMILES is read from it. * marks the point of attachment. Cbz = O=C(OCc1ccccc1)*; CH2F = FC*
# Key:
# caspase-9 GFPspark = target: T1, caspase-9 GFPspark (Homo sapiens, UniProt P55211); experiment: AbRGT FRET imaging / acceptor photobleaching, caspase-9 GFPspark in MCF-7 cells; type: cell-based
# T1 construct: host or cells: MCF-7, HEK-293
# T1 sequence (P55211 1-416): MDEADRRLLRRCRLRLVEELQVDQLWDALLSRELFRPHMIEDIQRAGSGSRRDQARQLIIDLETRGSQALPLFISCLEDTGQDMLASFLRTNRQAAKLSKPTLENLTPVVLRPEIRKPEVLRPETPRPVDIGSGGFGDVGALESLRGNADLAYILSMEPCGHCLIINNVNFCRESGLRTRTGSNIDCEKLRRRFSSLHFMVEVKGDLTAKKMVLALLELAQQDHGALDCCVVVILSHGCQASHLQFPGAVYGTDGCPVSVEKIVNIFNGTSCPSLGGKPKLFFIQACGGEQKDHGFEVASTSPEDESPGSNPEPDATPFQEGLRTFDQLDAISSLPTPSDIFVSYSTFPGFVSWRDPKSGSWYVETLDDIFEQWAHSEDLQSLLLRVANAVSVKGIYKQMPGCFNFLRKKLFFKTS
# Description: FIG. 15 depicts confocal images of MCF-7 cells in GFP, FRET and Rh channel Caspase-7 GFPspark transfected MCF-7 cells were treated with STS (1 μM) for 6 h and labelled (a) (i) with probe 1 (1 μM) probe. Cells were pre-treated with (a) (ii) Z-VAD-FMK (50 μM) or (a) (iii) Q-VD-OPh (50 μM) pan-caspase inhibitors 1 h before the probe labelling. Caspase-9 GFPspark transfected MCF-7 cells were treated with STS (1 μM) for 4 h and labelled (b) (i) with probe 1 (1 μM) probe. Cells were pre-treated with (b) (ii) Z-VAD-FMK (50 μM) 1 h before probe labelling. Caspase-8 GFPspark overexpressing HEK-293 cells were treated with TRAIL (1 μg/ml) for 5 h and labelled (c) (i) with the probe 1. Cells were pre-treated with (c) (ii) Z-VAD-FMK (50 μM) 1 h before probe labelling.
# FIG. 16 depicts specific detection of caspase-9 GFPspark in MCF-7 cells. Casp-9 GFPspark (1 μg) transfected MCF-7 cells were treated with STS (1 μM) for 4 h and labelled with the probe 1 (1 μM). Cells were fixed and the fluorescence signal was collected in GFP, FRET and Rh channels. The acceptor photobleaching experiment was carried out to confirm the FRET signal as described previously. Bar graph representing a rise in GFP intensity in ROI after rhodamine photobleaching was 63 a.u. as compared to the unbleached background, i.e., 8 a.u. FRET efficiency was calculated to be 30±1%.
# (§1) Plasmids and transient transfection: GFPspark tagged plasmids; caspase-3 GFPspark tag (Cat: HG10050-ACG), caspase-7 GFPspark tag (HG10049-ACG), caspase-8 GFPspark (HG10078-ACG), caspase-9 GFPspark (HG11151-ACG) and cathepsin B GFPspark (HG10483-ACG) were procured from Sino Biological. For transfection, cells were seeded in a 6-well plate at a density of 0.4 million cells/well. At 60-70% confluency, cells were transiently transfected for 24 h at 37° C. with 1 μg of the GFPspark tagged plasmid DNA construct mixed with 5 μL of Lipofectamine 2000 (Invitrogen) according to the manufacturer's instructions. 24 h post-transfection, cells were visualized under the GFP filter for GFPspark expression under fluorescence microscope at 10× magnification.
# Labelling of active caspases in apoptotic cells with FABP: After 24 h of transfection, cells were treated with STS (1 μM) drug or TRAIL (1 μg/ml) for apoptotic induction and incubated for 2, 4, 6 and 8 h at 37° C. in a humidified atmosphere of 5% CO2/95% air. Cells were gently scraped off from the surface at the end of apoptotic induction and centrifuged at 3000 rpm for 5 min. […] Slides were then imaged for GFP, FRET and rhodamine fluorescence signals under confocal microscopy. […]
# Fluorescence imaging studies, FRET procedure: Images were collected on Zeiss LSM710 confocal microscope with 25 mW argon laser using Zen10 software. […]
# cathepsin B GFPspark = target: T2, cathepsin B GFPspark (Homo sapiens, UniProt P07858); experiment: AbRGT FRET imaging / acceptor photobleaching, cathepsin B GFPspark in HEK-293 cells; type: cell-based
# T2 construct: GFPspark (C); host or cells: HEK-293
# Description: FIG. 20 depicts confocal images of HEK-293 cells in GFP, FRET and Rh channel Cathepsin B GFPspark transfected HEK-293 cells were treated with STS (1 μM) for 4 h and labelled (a) (i) with or (a) (iv) without probe 1. Cells were pre-treated with (a) (ii) Z-VAD-FMK (50 μM) or (a) (iii) E-64 (50 μM) inhibitor 1 h before the probe 1 labelling. (b) Quantification of the change in GFPS fluorescence intensity after rhodamine photobleaching in both unbleached control region and rhodamine bleached region (ROI), using acceptor photo-bleaching method. Error bar represents the s.e.m for n=10 cells (*P<0.00001). Scale bar, 10 μm. a.u., arbitrary units.
# as §1
# Labelling of active caspases in apoptotic cells with FABP: After 24 h of transfection, cells were treated with STS (1 μM) drug or TRAIL (1 μg/ml) for apoptotic induction and incubated for 2, 4, 6 and 8 h at 37° C. in a humidified atmosphere of 5% CO2/95% air. Cells were gently scraped off from the surface at the end of apoptotic induction and centrifuged at 3000 rpm for 5 min. The cell pellet was resuspended in 300 μL of fresh DMEM containing 1 μM of probe for probe 2 and incubated for additional 2 h at 37° C. in a humidified atmosphere of 5% CO2. Cells were again centrifuged at 3000 rpm for 5 mins, and the supernatant was decanted. Cells were washed with 1×PBS, thrice finally resuspended in 20 μL of 1×PBS. The cell suspension was put on a slide, and a coverslip was placed over it. It was left for air drying. Slides were then imaged for GFP, FRET and rhodamine fluorescence signals under confocal microscopy.
# Inhibitor assay: Cells were pre-treated with 50 μM of Z-VAD-FMK or Q-VD-OPh or E-64 inhibitor 1 h before probe 1 labelling and incubated for 1 h at 37° C. in a humidified atmosphere of 5% CO2. Cells were gently scraped off from the surface at the end of inhibitor treatment and centrifuged at 3000 rpm for 5 min Cells were then labelled with the probe 1 as described in the previous section.
# Fluorescence imaging studies, FRET procedure: Images were collected on Zeiss LSM710 confocal microscope with 25 mW argon laser using Zen10 software. The laser was tuned to lines at 488 nm (excitation laser for GFPspark) and 561 nm (excitation laser for rhodamine) Cells were examined with a 40× 1.3 NA Zeiss oil immersion objective and 2.4× zoom. Images were collected in the three channels; GFP channel, argon laser tuned at 488 nm with 2% laser intensity and fluorescence emission was collected in emission range of 490-550 nm; rhodamine channel, argon laser tuned to 561 nm laser with 2% laser intensity and fluorescence emission was collected in range 550-650 nm and FRET channel with excitation laser of GFPSPARK channel and emission range of rhodamine channel. […]
# [1] = MCF-7, inhibitor 50 μM, STS 4 h
# [2] = HEK-293, inhibitor 50 μM 1 h before probe 1 labelling, STS 4 h
# [3] = MCF-7, STS 1 μM 4 h, probe 1 μM
effect of inhibitor on signal in FRET channel (caspase-9 GFPspark; [1]),effect of inhibitor on signal in Rh channel (caspase-9 GFPspark; [1]),effect of inhibitor on FRET signal (cathepsin B GFPspark; [2]),Molecule,signal in Rh channel in presence of inhibitor (cathepsin B GFPspark; [2]),calculated FRET efficiency (caspase-9 GFPspark; [3]),rise in GFP intensity in ROI after rhodamine photobleaching (caspase-9 GFPspark; [3]),"FRET efficiency (cathepsin B GFPspark; HEK-293, STS 1 μM 4 h, probe 1 μM 2 h, n=10 cells)"
completely abolished,completely abolished,completely abolished,COC(=O)C[C@H](NC(=O)[C@H](C)NC(=O)[C@@H](NC(=O)OCc1ccccc1)C(C)C)C(=O)CF [Z-VAD-FMK] (Cbz-Val-Ala-Asp(OMe)-CH2F),less intense fluorescence signal was still retained,,,
,,,Rhodamine-VAD-fluoromethyl ketone [probe 1],,30±1%,63 a.u.,37±1%
